Counter-ions that a name gives are not always drawn.
Tests used:
[1] = molecular target: Human recombinant PDE10A2 (Homo sapiens (Human), UniProt Q9Y233); experiment: In vitro hPDE10a: human recombinant PDE10A2 scintillation proximity assay, IC50; format: biochemical; conditions: human recombinant PDE10A2, SPA, 60 nM cAMP; read-out: hPDE10a2 IC50
Method: Cells were harvested and the phosphodiesterase protein was purified by metal chelate chromatography on Ni-sepharose 6FF. The affinity of the compounds of Formula (I) for phophodiesterases (PDE) was measured by a scintillation proximity assay (SPA). PDE Yttrium Silicate SPA beads allow PDE activity to be measured by direct binding of the primary phosphate groups of non-cyclic AMP or GMP to the beads via a complex iron chelation mechanism. The amount of bound tritiated product ([^3H]-AMP) is measured by liquid scintillation counting. The compounds were dissolved and diluted in 100% DMSO in polystyrene plates to a concentration of 100-fold the final concentration in the assay. […] After incubation, the reaction was stopped with 20 μL of stop solution, consisting of PDE SPA beads (17.8 mg beads/mL in 18 mM zinc sulphate). […] To measure the low control, no enzyme was added to the reaction mixture. Data were calculated as the percentage of inhibition of total activity measured in the absence of test compound (% control). […] For compounds tested more than once, the data points were aggregated.

[2] = molecular target: Rat recombinant PDE10a (rPDE10a) (Rattus norvegicus (Rat), UniProt Q9QYJ6); experiment: In vitro assay PDE10a: rat recombinant PDE10a SPA with 3H-cAMP substrate, IC50; format: biochemical; conditions: 60 nM cAMP, read-out: rPDE10a2 IC50
Method: In Vitro Assay PDE10a Rat recombinant PDE10a (rPDE10a) was expressed in Sf9 cells using a recombinant rPDE10a baculovirus construct. Cells were harvested after 48 h of infection and the rPDE10a protein was purified by metal chelate chromatography on Ni-sepharose 6FF. Tested compounds were dissolved and diluted in 100% DMSO to a concentration 100 fold of the final concentration in the assay. […] The reaction was incubated for 60 min at rt. After incubation, the reaction was stopped with 20 μL of 17.8 mg/mL PDE SPA beads. […] For blank values the enzyme was omitted from the reaction and replaced by incubation buffer.

Sequence of Human recombinant PDE10A2 (Q9Y233 267-1055): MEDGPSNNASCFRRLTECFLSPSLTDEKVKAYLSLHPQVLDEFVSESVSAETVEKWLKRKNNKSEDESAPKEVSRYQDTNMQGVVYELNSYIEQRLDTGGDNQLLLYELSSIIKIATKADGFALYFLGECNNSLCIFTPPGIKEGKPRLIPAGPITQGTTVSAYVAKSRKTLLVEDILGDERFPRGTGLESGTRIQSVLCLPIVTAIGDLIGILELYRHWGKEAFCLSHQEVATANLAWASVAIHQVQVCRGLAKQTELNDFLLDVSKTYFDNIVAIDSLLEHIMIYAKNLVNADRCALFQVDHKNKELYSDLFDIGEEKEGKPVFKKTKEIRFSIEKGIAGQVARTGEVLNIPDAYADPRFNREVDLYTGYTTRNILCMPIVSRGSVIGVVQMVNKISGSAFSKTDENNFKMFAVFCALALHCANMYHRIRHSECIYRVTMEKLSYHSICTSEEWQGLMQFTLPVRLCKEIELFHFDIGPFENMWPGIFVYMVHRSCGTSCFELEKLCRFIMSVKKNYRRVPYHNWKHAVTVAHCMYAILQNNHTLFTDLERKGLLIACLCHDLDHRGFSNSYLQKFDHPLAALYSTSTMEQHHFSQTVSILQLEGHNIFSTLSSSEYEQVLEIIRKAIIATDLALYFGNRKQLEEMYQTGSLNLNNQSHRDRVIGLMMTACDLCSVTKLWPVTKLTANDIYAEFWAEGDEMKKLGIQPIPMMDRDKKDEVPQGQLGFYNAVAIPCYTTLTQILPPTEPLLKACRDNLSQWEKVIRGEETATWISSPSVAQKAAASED
Sequence of Rat recombinant PDE10a (rPDE10a) (Q9QYJ6 whole entry): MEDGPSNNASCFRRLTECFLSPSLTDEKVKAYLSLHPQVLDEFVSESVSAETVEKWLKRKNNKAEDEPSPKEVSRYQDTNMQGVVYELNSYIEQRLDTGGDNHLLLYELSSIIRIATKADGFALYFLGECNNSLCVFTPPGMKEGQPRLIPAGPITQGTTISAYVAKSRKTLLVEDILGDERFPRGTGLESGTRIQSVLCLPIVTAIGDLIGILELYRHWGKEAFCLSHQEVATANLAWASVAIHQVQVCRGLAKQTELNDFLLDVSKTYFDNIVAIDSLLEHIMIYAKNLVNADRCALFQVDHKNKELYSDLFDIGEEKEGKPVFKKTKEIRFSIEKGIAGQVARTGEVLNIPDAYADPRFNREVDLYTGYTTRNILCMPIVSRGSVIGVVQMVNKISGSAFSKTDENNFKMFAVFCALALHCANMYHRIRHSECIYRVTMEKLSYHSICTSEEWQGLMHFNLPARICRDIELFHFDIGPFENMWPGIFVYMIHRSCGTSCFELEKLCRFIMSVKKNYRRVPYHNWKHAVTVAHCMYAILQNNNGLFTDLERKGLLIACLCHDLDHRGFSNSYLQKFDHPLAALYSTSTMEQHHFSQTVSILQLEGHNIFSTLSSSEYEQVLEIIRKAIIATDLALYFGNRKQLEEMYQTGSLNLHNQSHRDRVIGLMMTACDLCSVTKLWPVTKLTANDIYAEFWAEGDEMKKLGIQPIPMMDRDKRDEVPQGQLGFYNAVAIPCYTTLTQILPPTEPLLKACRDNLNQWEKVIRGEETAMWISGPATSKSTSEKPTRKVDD

IC50 [1]	IC50 [2]	SMILES
43 nM	17 nM	CN1CC=C(c2ccc(-c3c(COc4ccc5ccccc5n4)nc4c(N5CCOCC5)ccnn34)cn2)CC1 [Cpd 10, 4-(3-(1′-methyl-1′,2′,3′,6′-tetrahydro-[2,4′-bipyridin]-5-yl)-2-((quinolin-2-yloxy)methyl)imidazo[1,2-b]pyridazin-8-yl)morpholine]
4 nM	7 nM	CC(C)[C@H](NC(=O)c1ccc(-c2c(CCc3ccc4ccccc4n3)nc3c(N4CCOCC4)ccnn23)cc1)C(=O)O [Cpd 75, N-({4-[8-Morpholin-4-yl-2-(2-quinolin-2-ylethyl)imidazo[1,2-b]pyridazin-3-yl]phenyl}carbonyl)-L-valine]
4 nM	5 nM	O=C(O)c1ccc(-c2c(/C=C/c3ccc4ccccc4n3)nc3c(N4CCOCC4)ccnn23)cn1 [compound 92, (E)-5-(8-Morpholino-2-(2-(quinolin-2-yl)vinyl)imidazo[1,2-b]pyridazin-3-yl)picolinic acid]
4 nM	2 nM	CS(=O)(=O)NC(=O)c1cccc2nc(/C=C/c3nc4c(N5CCOCC5)ccnn4c3-c3ccccn3)ccc12 [Cpd 145, (E)-N-(Methylsulfonyl)-2-(2-(8-morpholino-3-(pyridin-2-yl)imidazo[1,2-b]pyridazin-2-yl)vinyl)quinoline-5-carboxamide]
22 nM	31 nM	N#Cc1ccc(C#Cc2nc3c(N4CCOCC4)ccnn3c2-c2ccc(C(=O)O)cc2)nc1 [Cpd 96, 4-(2-((5-Cyanopyridin-2-yl)ethynyl)-8-morpholinoimidazo[1,2-b]pyridazin-3-yl)benzoic acid]
2 nM	2 nM	COc1ccc(C#Cc2nc3c(N4CCOCC4)ccnn3c2-c2ccc(C(=O)O)cc2)nc1 [Cpd 110, 4-(2-((5-Methoxypyridin-2-yl)ethynyl)-8-morpholinoimidazo[1,2-b]pyridazin-3-yl)benzoic acid]
1 nM	4 nM	Oc1c(F)cc(-c2c(CCc3ccc4ccccc4n3)nc3c(N4CCOCC4)ccnn23)cc1F [compound 81, 2,6-Difluoro-4-(8-morpholino-2-(2-(quinolin-2-yl)ethyl)imidazo[1,2-b]pyridazin-3-yl)phenol]
7 nM	7 nM	O=C(O)CC1CCN(c2c(/C=C/c3ccc4ccccc4n3)nc3c(N4CCOCC4)ccnn23)CC1 [Cpd 156, (E)-2-(1-(8-Morpholino-2-(2-(quinolin-2-yl)vinyl)imidazo[1,2-b]pyridazin-3-yl)piperidin-4-yl)acetic acid]
< 1 nM	< 1 nM	COc1cccc(C#Cc2nc3c(N4CCOCC4)ccnn3c2-c2ccc(C(=O)O)cc2)n1 [Cpd 109, 4-(2-((6-Methoxypyridin-2-yl)ethynyl)-8-morpholinoimidazo[1,2-b]pyridazin-3-yl)benzoic acid]
2 nM	2 nM	O=C(O)c1ccc(-c2c(C3CN(c4ccc5ccccc5n4)C3)nc3c(N4CCOCC4)ccnn23)cc1 [Cpd 157, 4-(8-Morpholino-2-(1-(quinolin-2-yl)azetidin-3-yl)imidazo[1,2-b]pyridazin-3-yl)benzoic acid]
< 1 nM	< 1 nM	O=C(O)c1cc2ccccc2nc1/C=C/c1cn2nccc(N3CCOCC3)c2n1 [Cpd 144, 2-[(E)-2-(8-Morpholin-4-ylimidazo[1,2-b]pyridazin-2-yl)ethenyl]quinoline-3-carboxylic acid]
4 nM	5 nM	CC(C)[C@H](NC(=O)c1ccc(-c2c(C#Cc3ccc4ccccc4n3)nc3c(N4CCOCC4)ccnn23)cc1)C(=O)O [Cpd 101, (S)-3-Methyl-2-(4-(8-morpholino-2-(quinolin-2-ylethynyl)imidazo[1,2-b]pyridazin-3-yl)benzamido)butanoic acid trifluoroacetic acid salt]
7 nM	4 nM	NS(=O)(=O)c1ccc(-c2c(CCc3ccc4ccccc4n3)nc3c(N4CCOCC4)ccnn23)cc1 [compound 38, 4-(8-Morpholino-2-(2-(quinolin-2-yl)ethyl)imidazo[1,2-b]pyridazin-3-yl)benzenesulfonamide]
< 1 nM	2 nM	O=C(O)CCNC(=O)c1ccc(-c2c(C#Cc3ccc4ccccc4n3)nc3c(N4CCOCC4)ccnn23)cc1 [compound 82, 3-(4-(8-Morpholino-2-(quinolin-2-ylethynyl)imidazo[1,2-b]pyridazin-3-yl)benzamido)propanoic acid]
19 nM	30 nM	Clc1cc(N2CCOCC2)c2nc([C@H]3C[C@H](c4ccc5ccccc5n4)C3)cn2n1 [Cpd 130, 2-[trans-3-(6-Chloro-8-morpholin-4-ylimidazo[1,2-b]pyridazin-2-yl)cyclobutyl]quinoline]
6 nM	6 nM	COc1cc2ccccc2nc1/C=C/c1nc2c(N3CCOCC3)ccnn2c1-c1ccc(C(=O)O)cc1 [Cpd 119, (E)-4-(2-(2-(3-Methoxyquinolin-2-yl)vinyl)-8-morpholinoimidazo[1,2-b]pyridazin-3-yl)benzoic acid]
1 nM	< 1 nM	c1ccc2nc(CCc3nc4c(N5CCOCC5)ccnn4c3-c3ccc(-c4nnn[nH]4)nc3)ccc2c1 [Cpd 31, 4-(3-(6-(1H-Tetrazol-5-yl)pyridin-3-yl)-2-(2-(quinolin-2-yl)ethyl)imidazo[1,2-b]pyridazin-8-yl)morpholine trifluoroacetic acid salt]
5 nM	6 nM	O=c1ncn(-c2ccc(-c3c(CCc4ccc5ccccc5n4)nc4c(N5CCOCC5)ccnn34)cc2)[nH]1 [Cpd 59, 1-(4-(8-Morpholino-2-(2-(quinolin-2-yl)ethyl)imidazo[1,2-b]pyridazin-3-yl)phenyl)-1,2-dihydro-1,2,4-triazol-3-one trifluoroacetic acid salt]
6 nM	6 nM	C(=C\c1nc2c(N3CCOCC3)ccnn2c1-c1ccc(-c2nnn[nH]2)cc1)/c1ccc2ccccc2n1 [compound 176, (E)-4-(3-(4-(1H-Tetrazol-5-yl)phenyl)-2-(2-(quinolin-2-yl)vinyl)imidazo[1,2-b]pyridazin-8-yl)morpholine]
7 nM	4 nM	O=C(O)c1ccc(-c2c([C@@H]3C[C@@H]3c3ccc4ccccc4n3)nc3c(N4CCOCC4)cc(Cl)nn23)cc1 [Cpd 147, 4-(6-Chloro-8-morpholino-2-((1R,2S)-2-(quinolin-2-yl)cyclopropyl)imidazo[1,2-b]pyridazin-3-yl)benzoic acid trifluoroacetic acid salt]
126 nM	457 nM	CN(C)c1ccc(-c2c(COc3ccc4ccccc4n3)nc3c(N4CCOCC4)ccnn23)cn1 [Cpd 5, N,N-dimethyl-5-(8-morpholino-2-((quinolin-2-yloxy)methyl)imidazo[1,2-b]pyridazin-3-yl)pyridin-2-amine methane sulfonic acid]
3 nM	8 nM	CS(=O)(=O)NC(=O)c1cccc2nc(/C=C/c3cn4nc(Cl)cc(N5CCOCC5)c4n3)ccc12 [Cpd 104, 2-[(E)-2-(6-Chloro-8-morpholin-4-ylimidazo[1,2-b]pyridazin-2-yl)ethenyl]-N-(methylsulfonyl)quinoline-5-carboxamide]
8 nM	6 nM	C(=C\c1nc2c(N3CCOCC3)ccnn2c1-c1ccc(Sc2cnn[nH]2)nc1)/c1ccc2ccccc2n1 [Cpd 23, 2-[(E)-2-{8-Morpholin-4-yl-3-[6-(1H-1,2,3-triazol-5-ylsulfanyl)pyridin-3-yl]imidazo[1,2-b]pyridazin-2-yl}ethenyl]quinoline]
3 nM	3 nM	COc1cc(C(=O)O)ccc1-c1c(/C=C/c2ccc3ccccc3n2)nc2c(N3CCOCC3)ccnn12 [compound 98, (E)-3-Methoxy-4-(8-morpholino-2-(2-(quinolin-2-yl)vinyl)imidazo[1,2-b]pyridazin-3-yl)benzoic acid]
3 nM	4 nM	CS(=O)(=O)NC(=O)C1CCN(c2c(/C=C/c3ccc4ccccc4n3)nc3c(N4CCOCC4)ccnn23)CC1 [compound 153, (E)-N-(Methylsulfonyl)-1-(8-morpholino-2-(2-(quinolin-2-yl)vinyl)imidazo[1,2-b]pyridazin-3-yl)piperidine-4-carboxamide]

SMILES	IC50 [1]	IC50 [2]
c1ccc2nc(CNc3nc4c(N5CCOCC5)ccnn4c3-c3ccc(N4CCNCC4)nc3)ccc2c1 [Cpd 11, 8-Morpholino-3-(6-(piperazin-1-yl)pyridin-3-yl)-N-(quinolin-2-ylmethyl)imidazo[1,2-b]pyridazin-2-amine trifluoroacetic acid salt]	55 nM	25 nM
O=C(O)CN1CCC(c2c(/C=C/c3ccc4ccccc4n3)nc3c(N4CCOCC4)ccnn23)CC1 [Cpd 29, (E)-2-(4-(8-Morpholino-2-(2-(quinolin-2-yl)vinyl)imidazo[1,2-b]pyridazin-3-yl)piperidin-1-yl)acetic acid trifluoroacetic acid salt]	39 nM	49 nM
